Experimental data published in ChEMBL document CHEMBL1153684, “Antiinflammatory -benzeneethanamines. III” (Bioorg Med Chem Lett, 1993).

Key:
[1] = biological target: Phospholipase A2 (Rattus norvegicus, UniProt P04055); assay: Inhibitory activity against polymorphonuclear cell phospholipase-A2 in rat
[2] = biological target: T1, Polyunsaturated fatty acid 5-lipoxygenase (Rattus norvegicus, UniProt P12527); assay: Inhibition of rat basophilic leukemia cell 5-lipoxygenase
T1 sequence (P12527 whole entry): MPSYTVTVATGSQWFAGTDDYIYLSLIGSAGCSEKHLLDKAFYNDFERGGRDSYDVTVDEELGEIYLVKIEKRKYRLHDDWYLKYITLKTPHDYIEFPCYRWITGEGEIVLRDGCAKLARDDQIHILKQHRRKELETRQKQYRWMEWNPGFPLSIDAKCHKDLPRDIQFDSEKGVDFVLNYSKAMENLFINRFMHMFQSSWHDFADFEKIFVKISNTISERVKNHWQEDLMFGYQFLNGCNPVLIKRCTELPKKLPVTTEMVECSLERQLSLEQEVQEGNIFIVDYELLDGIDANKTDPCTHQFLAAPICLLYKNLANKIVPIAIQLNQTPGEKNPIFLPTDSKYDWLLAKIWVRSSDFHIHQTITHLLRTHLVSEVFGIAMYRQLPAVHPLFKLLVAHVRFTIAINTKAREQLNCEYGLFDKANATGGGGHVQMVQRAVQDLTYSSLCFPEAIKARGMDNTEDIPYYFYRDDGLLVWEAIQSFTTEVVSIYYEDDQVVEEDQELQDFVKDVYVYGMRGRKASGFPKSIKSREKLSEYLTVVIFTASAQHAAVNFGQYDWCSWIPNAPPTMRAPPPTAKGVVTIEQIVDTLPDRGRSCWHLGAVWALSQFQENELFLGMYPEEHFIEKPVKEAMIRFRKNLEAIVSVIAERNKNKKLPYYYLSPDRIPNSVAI

[3] = tested on: Rattus norvegicus; assay: Compound was tested for its oral antiinflammatory activity in the rat carrageenan paw edema assay (CAR); format: functional
[4] = tested on: Mus musculus; assay: Compound was tested for its oral antiinflammatory activity in the mouse contact sensitivity assay (CON SEN) at the specified dose, activity expressed as % inhibition at 50 mg/Kg; format: functional
[5] = species: Mus musculus; assay: Compound was tested for its oral antiinflammatory activity in the mouse contact sensitivity assay (CON SEN); format: functional
[6] = tested on: Mus musculus; assay: Percent inhibition for its antiinflammatory activity in the tetradecanoyl phorbol acetate mouse ear edema assay (TPA EAR); Inhibition at 100 […]; format: functional
[7] = tested on: Rattus norvegicus; assay: Percent inhibition for its antiinflammatory activity in the rat carrageenan paw edema assay (CAR), % inhibition at 50 mg/Kg; format: functional
[8] = tested on: Rattus norvegicus; assay: Compound was tested for its antiinflammatory activity in the rat established adjuvant arthritis paw edema assay (EST ADJ ARTH), after oral administration; format: functional

Phospholipase A2, sequence (P04055 whole entry): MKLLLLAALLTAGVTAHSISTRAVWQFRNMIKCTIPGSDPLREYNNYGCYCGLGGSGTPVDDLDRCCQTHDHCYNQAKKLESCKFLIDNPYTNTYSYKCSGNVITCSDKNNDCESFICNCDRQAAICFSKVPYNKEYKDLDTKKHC

| Compound | IC50 [1] [µM] | IC50 [2] [µM] | ED30 [3] [µM/kg] | inhibition in vivo at 50 mg/kg [4] [%] | ED35 [5] [mg/kg] | Inhibition [6] [%] | inhibition in vivo at 50 mg/kg [7] [%] | ED30 ([3]; Rattus norvegicus, po, read-out: ED30) [mg/kg] | ED50 [8] [mg/kg] |
| --- | --- | --- | --- | --- | --- | --- | --- | --- | --- |
| Cl.NCC(CCCSc1ccc2ccccc2c1)c1ccc(F)cc1 (stereo not given) | 14 | 23 | >153.6 |  |  |  |  |  |  |
| Cl.NCC(CCCCSc1ccc2ccccc2c1)c1ccc(F)cc1 (stereo not given) | 2.4 | 130 | 171.3 |  |  |  |  |  |  |
| NC1=NN(c2cccc(C(F)(F)F)c2)CC1 [BW-755C] | > 25 |  |  |  |  |  |  |  |  |
| C[C@@H]1C[C@H]2[C@@H]3CCC4=CC(=O)C=C[C@]4(C)[C@@]3(F)[C@@H](O)C[C@]2(C)[C@@]1(O)C(=O)CO [DEXAMETHASONE] | > 750 | > 25 | <2.5 |  |  |  |  |  |  |
| COc1ccc2c(c1)c(CC(=O)O)c(C)n2C(=O)c1ccc(Cl)cc1 [INDOMETHACIN] |  | > 250 | 2.8 |  |  |  |  |  |  |
| CCN(CC)CCCC(C)Nc1c2ccc(Cl)cc2nc2ccc(OC)cc12 (stereo not given) [QUINACRINE] | 100 |  | 5.8 |  |  |  |  |  |  |

Now from value to molecule, other results behind:

| IC50 [1] [µM] | IC50 [2] [µM] | Compound | ED30 [3] [µM/kg] | inhibition in vivo at 50 mg/kg [4] [%] | ED35 [5] [mg/kg] | Inhibition [6] [%] | inhibition in vivo at 50 mg/kg [7] [%] | ED30 ([3]; Rattus norvegicus, po, read-out: ED30) [mg/kg] | ED50 [8] [mg/kg] |
| --- | --- | --- | --- | --- | --- | --- | --- | --- | --- |
| 6.6 | 35 | Cc1ccc(SCCCCCC(CN)c2ccc(F)cc2)cc1.Cl (stereo not given) | 117.7 |  |  |  |  |  |  |
| 5.5 | 9.5 | Cc1ccc(SCCCCC(CN)c2ccc(F)cc2)cc1.Cl (stereo not given) | 1.4 | 51.2 | 8.9 | 37 | 59 | 0.51 | 50 |
| 4.8 | 230 | CC(C)(C)c1ccc(SCCCCC(CN)c2ccc(F)cc2)cc1.Cl (stereo not given) | 153.8 |  |  |  |  |  |  |
| 54 | 75 | Cc1ccc(SCCCC(CN)c2ccc(F)cc2)cc1.Cl (stereo in doubt) | >172.8 |  |  |  |  |  |  |
| 28.3 | 38 | Cc1ccc(SCCCC(CN)c2ccc(F)cc2)cc1.Cl (stereo in doubt; 2) | 50 |  |  |  |  |  |  |
